Assay results: paper PMC12193833, “Toxicity Assessment and Antifungal Potential of Copper(II) and Silver(I) Complexes with 1,10-Phenanthroline-5,6-dione Against Drug-Resistant Clinical Isolates of Cryptococcus gattii and Cryptococcus neoformans” (Journal of Fungi, 2025)
Values after ≈ are worked out from the molar mass of the structure shown. Blank lines part the entries; values can stand above or below the molecule they belong to.

Tests used:
[1] = tested on: Galleria mellonella larvae; assay: In vivo acute toxicity, single treatment; details: single inoculation; for Larval survival: 125–1000 µM, 10 µL/larva, 37 °C
Description: In this set of experiments, G. mellonella larvae weighing approximately 0.2–0.3 g and displaying clear, uniform coloration were used. The larvae were inoculated (10 µL/larva) using an insulin syringe (BD Ultra-Fine, Franklin Lakes, NJ, USA) at the last left proleg. […] We also assessed their coloration through visual analysis as an indicator of stress levels. Throughout the experiments, the larvae were maintained at 37 °C [19, 42]. Two distinct treatment protocols were designed to evaluate the effects of the test compounds on larval survivability, as detailed below.
For the acute toxicity analysis, the test compounds were administered to the larvae in a single inoculation at concentrations ranging from 1000 to 125 μM. Each group consisted of 10 larvae, while the control group received only sterile PBS with 4% DMSO. […] The SI was calculated using the following equation: SI = G. mellonella CC50/Cryptococcus MIC.

[2] = tested on: C. gattii clinical isolates; assay: MIC/MFC of test compounds, microdilution; type: cell-based, Cryptococcus gattii
Source text: (§1) Six clinical isolates belonging to the Cryptococcus genus were obtained from patients who attended the Instituto Nacional de Infectologia Evandro Chagas (INI), Fundação Oswaldo Cruz (FIOCRUZ), and were kindly provided by Dr. Rodrigo Almeida-Paes (INI-FIOCRUZ). To comply with ethical standards and institutional agreements between UFRJ and FIOCRUZ, patient data were not disclosed. In this sense, the C. neoformans isolates were designated CFP00213 (213), CFP00223 (223), and CFP00350 (350), while the C. gattii isolates were labeled CFP00023 (23), CFP00025 (25), and CFP00027 (27). Before each experiment, an aliquot of the culture was transferred from Sabouraud dextrose agar (2% glucose, 1% peptone, and 0.5% yeast extract) to RPMI 1640 medium (Sigma-Aldrich, St. Louis, MO, USA), pH 7.2, buffered with 0.165 M MOPS (Sigma-Aldrich, St. Louis, MO, USA). RPMI medium induces the expression of capsular polysaccharides, the primary virulence factor of Cryptococcus cells. The cultures were incubated at 37 °C for 48 h to promote cell proliferation, stimulate metabolic activation, and enhance capsular development. Yeast cell counts were determined using a Neubauer chamber.
(§2) Following MIC determination, the MFC was assessed by inoculating 10 µL from wells showing no visible fungal growth onto Sabouraud dextrose agar. […] To further support and strengthen the evidence of the anti-Cryptococcus activity of the Cu-phendione and Ag-phendione complexes, we additionally performed MIC/MFC assays using well-characterized standard reference strains: ATCC 28957, H99, T1444 (all C. neoformans), and R265 (C. gattii).

[3] = tested on: C. neoformans clinical isolates; assay: MIC/MFC of test compounds, microdilution; type: cell-based, Cryptococcus neoformans
Source text: as §1, §2

[4] = tested on: C. neoformans clinical isolates; assay: Susceptibility to clinically available antifungals, CLSI M27-A3 microdilution; type: cell-based; details: Cryptococcus neoformans
Source text: as §1
(§3) The susceptibility profile was evaluated using the microdilution method in RPMI 1640 medium buffered with 0.165 M MOPS, following the M27-A3 protocol for yeasts established by the Clinical and Laboratory Standards Institute (CLSI). […] Each fungal isolate was classified as either wild-type or non-wild-type for each antifungal based on the epidemiological cutoff values provided in CLSI M59 ED3, 2020 [32].

[5] = tested on: C. gattii clinical isolates; assay: as above; type: cell-based; details: Cryptococcus gattii
Source text: as §1, §3

[6] = tested on: six clinical Cryptococcus isolates; assay: Susceptibility to clinically available antifungals, all six isolates; type: cell-based, Cryptococcus neoformans and Cryptococcus gattii; details: across all six clinical Cryptococcus isolates
Source text: as §1, §3

G. mellonella larvae = tested on: G. mellonella larvae; set-up: method as in PMID 32265890; details: cited from earlier work; for Mortality rate in G. mellonella larvae: 750 µg/mL; for Toxicity in G. mellonella larvae: up to 500 µg/mL, within 72 h
G. mellonella = details: cited from earlier work
[7] = C. gattii isolate 23, read-out: MIC
[8] = C. gattii isolate 25, read-out: MIC
[9] = C. gattii isolate 27, read-out: MIC
[10] = C. neoformans isolate 213, read-out: MIC
[11] = C. neoformans isolate 223, read-out: MIC
[12] = C. neoformans isolate 350, read-out: MIC
[13] = 24 h, C. gattii isolate 23, 37 °C
[14] = 24 h, C. gattii isolate 25, 37 °C
[15] = 24 h, C. gattii isolate 27, 37 °C
[16] = C. gattii isolate 23, value in brackets
[17] = C. gattii isolate 25, value in brackets
[18] = C. gattii isolate 27, value in brackets
[19] = all C. gattii clinical isolates
[20] = all C. neoformans clinical isolates

SMILES: O=C1C(=O)c2cccnc2-c2ncccc21 [Phendione, 1,10-Phenanthroline-5,6-dione]
Larval survival [1]: 100% | MIC [2, 7]: 12.5 µM (≈ 2.63 µg/mL) | MIC [2, 8]: 12.5 µM (≈ 2.63 µg/mL) | MIC [2, 9]: 12.5 µM (≈ 2.63 µg/mL) | MFC ([2]; Cryptococcus gattii, C. gattii isolate 23): > 100 µM | MFC ([2]; Cryptococcus gattii, C. gattii isolate 25): 100 µM (≈ 21 µg/mL) | MFC ([2]; Cryptococcus gattii, C. gattii isolate 27): > 100 µM | MFC ([2]; Cryptococcus gattii, all C. gattii clinical isolates): ≥ 100 µM | MIC ([2]; Cryptococcus gattii, all C. gattii clinical isolates, read-out: MIC): 12.5 µM (≈ 2.63 µg/mL) | MIC [3, 10]: 12.5 µM (≈ 2.63 µg/mL) | MIC [3, 11]: 12.5 µM (≈ 2.63 µg/mL) | MIC [3, 12]: 12.5 µM (≈ 2.63 µg/mL) | MFC ([3]; Cryptococcus neoformans, C. neoformans isolate 213): > 100 µM | MFC ([3]; Cryptococcus neoformans, C. neoformans isolate 223): 100 µM (≈ 21 µg/mL) | MFC ([3]; Cryptococcus neoformans, C. neoformans isolate 350): 100 µM (≈ 21 µg/mL) | MFC ([3]; Cryptococcus neoformans, all C. neoformans clinical isolates): ≥ 100 µM | MIC ([3]; Cryptococcus neoformans, all C. neoformans clinical isolates, read-out: MIC): 12.5 µM (≈ 2.63 µg/mL)

MIC ([4]; 24 h, C. neoformans isolate 213, 37 °C): 0.5 µg/mL | MIC ([4]; 24 h, C. neoformans isolate 223, 37 °C): 16 µg/mL | MIC ([4]; 24 h, C. neoformans isolate 350, 37 °C): 2 µg/mL | MIC ([4]; C. neoformans isolate 213, value in brackets): 1.4 µM | MIC ([4]; C. neoformans isolate 223, value in brackets): 45.8 µM | MIC ([4]; C. neoformans isolate 350, value in brackets): 5.72 µM | MIC [5, 13]: 4 µg/mL | MIC [5, 14]: 2 µg/mL | MIC [5, 15]: 4 µg/mL | MIC [5, 16]: 11.4 µM | MIC [5, 17]: 5.72 µM | MIC [5, 18]: 11.4 µM | MIC [6]: 0.5 to 16 µg/mL (≈ 1.43 to 45.8 µM)
SMILES: C[C@@H](c1ncncc1F)[C@](O)(Cn1cncn1)c1ccc(F)cc1F [Voriconazole, voriconazole]

SMILES: [Ag+].[O-][Cl+3]([O-])([O-])[O-] [AgClO4, silver perchlorate]
Larval mortality ([1]; 250 µM): 20% | Larval mortality ([1]; 500 µM): 20% | Larval mortality ([1]; 1000 µM): 50% | MFC ([2]; C. gattii isolate 23): 12.5 µM | MIC [2, 7]: 1.56 µM | MFC ([2]; C. gattii isolate 25): 12.5 µM | MIC [2, 8]: 1.56 µM | MFC ([2]; C. gattii isolate 27): 12.5 µM | MIC [2, 9]: 1.56 µM | MFC [2, 19]: 12.5 µM | MIC ([2]; all C. gattii clinical isolates, read-out: MIC): 1.56 µM | MFC ([3]; C. neoformans isolate 213): > 100 µM | MIC [3, 10]: 1.56 µM | MFC ([3]; C. neoformans isolate 223): > 100 µM | MIC [3, 11]: 1.56 µM | MFC ([3]; C. neoformans isolate 350): > 100 µM | MIC [3, 12]: 1.56 µM | MFC [3, 20]: > 100 µM | MIC ([3]; all C. neoformans clinical isolates, read-out: MIC): 1.56 µM

SMILES: O.O.O.O.O.O.[Cu+2].[O-][Cl+3]([O-])([O-])[O-].[O-][Cl+3]([O-])([O-])[O-] [Cu(ClO4)2.6H2O, copper perchlorate]
Larval survival [1]: 100% | MIC ([2]; C. gattii isolate 23): >100/ND µM | MIC ([2]; C. gattii isolate 25): >100/ND µM | MIC ([2]; C. gattii isolate 27): >100/ND µM | MIC [2, 19]: no antifungal activity | MIC ([3]; C. neoformans isolate 213): >100/ND µM | MIC ([3]; C. neoformans isolate 223): >100/ND µM | MIC ([3]; C. neoformans isolate 350): >100/ND µM | MIC [3, 20]: no antifungal activity

MIC [5, 13]: 32 µg/mL | MIC [5, 14]: 16 µg/mL | MIC [5, 15]: 16 µg/mL | MIC [5, 16]: 104 µM | MIC [5, 17]: 52.2 µM | MIC [5, 18]: 52.2 µM | MIC [6]: ≥ 4 µg/mL
SMILES: OC(Cn1cncn1)(Cn1cncn1)c1ccc(F)cc1F [Fluconazole, fluconazole]

SMILES: O.O.O.O.O.O.O.O.O.O.O.O.O.O.O.O.O=C([O-])c1cccc(C(=O)[O-])c1.O=C([O-])c1cccc(C(=O)[O-])c1.[Mn+2].[Mn+2].c1cnc2c(c1)ccc1cccnc12.c1cnc2c(c1)ccc1cccnc12.c1cnc2c(c1)ccc1cccnc12.c1cnc2c(c1)ccc1cccnc12.c1cnc2c(c1)ccc1cccnc12 [{[Mn(1,10-phenanthroline)2(H2O)2]}2(isophthalic acid)2(1,10-phenanthroline)·12H2O]
Mortality rate in G. mellonella larvae (G. mellonella larvae): 13%

SMILES: [Ag+].[O-][Cl+3]([O-])([O-])[O-].c1cnc2c(c1)ccc1cccnc12.c1cnc2c(c1)ccc1cccnc12 [[Ag(1,10-phenanthroline)2]ClO4]
Galiomycin expression (G. mellonella): increased | RNA levels encoding transferrin and inducible metalloproteinase inhibitor protein (IMPI) (G. mellonella): increased | Toxicity in G. mellonella larvae (G. mellonella larvae): no toxicity

SMILES: O.O.O=C([O-])c1ccccc1C(=O)[O-].[Mn+2].c1cnc2c(c1)ccc1cccnc12 [[Mn(phthalic acid)(1,10-phenanthroline)(H2O)2]]
Mortality rate in G. mellonella larvae (G. mellonella larvae): 40% | Toxicity in G. mellonella larvae (G. mellonella larvae): no toxicity
